# Reference: patent publication US20150164762A1, “USE OF ETHANOLAMINE PHOSPHATE” (priority 2012, published 2015)
# Tested on: BEAS-2B
# Experiment: Comprehensive gene expression analysis with Whole Human Genome DNA microarray after EP treatment
# Assay type: cell-based
# Experimental: Cells of the established normal human airway epithelial cell line BEAS-2B were used in the experiment. These cells were expansively cultured in 10% FBS RPMI-1640, and seeded at a density of 1×10^5/cm^2 on a 24-well plate. After 24 hours 0.1% FBS RPMI-1640 was substituted, and EP was administered to a final concentration of 0 or 1 mM (n=4). After 24 hours, the cells were used as the DNA microarray samples. RNA was extracted using a QIAGEN RNeasy Mini Kit. The DNA microarray test was performed using a Whole Human Genome DNA microarray 4×44K (Agilent), and the necessary labeling reagents and the like for the DNA microarray test were all from Agilent. The DNA microarray test data were analyzed statistically with GeneSpring (Agilent) dedicated analysis software, and gene function analysis (Gene Ontology (GO) analysis) was performed based on differential expression. The purpose of the GO analysis is to determine stochastically the degree to which gene sets with statistically significant differential expression correspond to known functional classification gene sets. […] The p-value is calculated according to the following formula.
compound,measurement,setting,value
"NCCOP(=O)(O)O [EP, Ethanolamine phosphate]",expression of cytokines,"1 mM EP, 24 h",reduced expression of many cytokines
same,R*: Ratio to control,"AEN, probe A_23_P206077",0.420 times
same,log2 [ratio],"AEN, probe A_23_P206077",−1.253
same,R*: Ratio to control,"AGGF1, probe A_23_P250554",1.523 times
same,log2 [ratio],"AGGF1, probe A_23_P250554",0.607
same,R*: Ratio to control,"AIFM2, probe A_32_P75094",0.399 times
same,log2 [ratio],"AIFM2, probe A_32_P75094",−1.327
same,R*: Ratio to control,"AIFM3, probe A_23_P258194",0.590 times
same,log2 [ratio],"AIFM3, probe A_23_P258194",−0.761
same,R*: Ratio to control,"ANXA2, probe A_23_P146644",1.673 times
same,log2 [ratio],"ANXA2, probe A_23_P146644",0.742
same,R*: Ratio to control,"ANXA2, probe A_32_P94798",1.614 times
same,log2 [ratio],"ANXA2, probe A_32_P94798",0.691
same,R*: Ratio to control,"APAF1, probe A_23_P36611",0.420 times
same,log2 [ratio],"APAF1, probe A_23_P36611",−1.253
same,R*: Ratio to control,"APPL1, probe A_24_P302833",1.723 times
same,log2 [ratio],"APPL1, probe A_24_P302833",0.785
same,R*: Ratio to control,"ARHGAP24, probe A_23_P110151",1.670 times
same,log2 [ratio],"ARHGAP24, probe A_23_P110151",0.740
same,R*: Ratio to control,"ARHGAP24, probe A_24_P388659",1.745 times
same,log2 [ratio],"ARHGAP24, probe A_24_P388659",0.803
same,R*: Ratio to control,"ARHGEF6, probe A_23_P85024",0.270 times
same,log2 [ratio],"ARHGEF6, probe A_23_P85024",−1.889
same,R*: Ratio to control,"BAK1, probe A_23_P145357",0.402 times
same,log2 [ratio],"BAK1, probe A_23_P145357",−1.313
same,R*: Ratio to control,"BAX, probe A_23_P208706",0.453 times
same,log2 [ratio],"BAX, probe A_23_P208706",−1.143
same,R*: Ratio to control,"BAX, probe A_23_P346311",0.511 times
same,log2 [ratio],"BAX, probe A_23_P346311",−0.969
same,R*: Ratio to control,"BBC3, probe A_23_P382775",0.315 times
same,log2 [ratio],"BBC3, probe A_23_P382775",−1.666
same,R*: Ratio to control,"BBC3, probe A_24_P305312",0.366 times
same,log2 [ratio],"BBC3, probe A_24_P305312",−1.452
same,R*: Ratio to control,"BCAT1, probe A_24_P935986",1.721 times
same,log2 [ratio],"BCAT1, probe A_24_P935986",0.783
same,R*: Ratio to control,"BCL2L11, probe A_24_P122921",0.636 times
same,log2 [ratio],"BCL2L11, probe A_24_P122921",−0.652
same,R*: Ratio to control,"BCL2L14, probe A_23_P128050",0.594 times
same,log2 [ratio],"BCL2L14, probe A_23_P128050",−0.751
same,R*: Ratio to control,"BCL10, probe A_23_P115286",0.542 times
same,log2 [ratio],"BCL10, probe A_23_P115286",−0.883
same,R*: Ratio to control,"BCL10, probe A_24_P19983",0.571 times
same,log2 [ratio],"BCL10, probe A_24_P19983",−0.810
same,R*: Ratio to control,"BIK, probe A_23_P404867",0.298 times
same,log2 [ratio],"BIK, probe A_23_P404867",−1.748
same,R*: Ratio to control,"BLOC1S2, probe A_23_P23960",0.396 times
same,log2 [ratio],"BLOC1S2, probe A_23_P23960",−1.336
same,R*: Ratio to control,"BLOC1S2, probe A_24_P295543",0.384 times
same,log2 [ratio],"BLOC1S2, probe A_24_P295543",−1.381
same,R*: Ratio to control,"BMP4, probe A_23_P54144",1.820 times
same,log2 [ratio],"BMP4, probe A_23_P54144",0.864
same,R*: Ratio to control,"BNIP3, probe A_23_P138635",0.374 times
same,log2 [ratio],"BNIP3, probe A_23_P138635",−1.418
same,R*: Ratio to control,"BNIP3L, probe A_23_P134925",0.633 times
same,log2 [ratio],"BNIP3L, probe A_23_P134925",−0.661
same,R*: Ratio to control,"BTG1, probe A_23_P87560",0.416 times
same,log2 [ratio],"BTG1, probe A_23_P87560",−1.265
same,R*: Ratio to control,"C16orf5, probe A_23_P15247",0.519 times
same,log2 [ratio],"C16orf5, probe A_23_P15247",−0.947
same,R*: Ratio to control,"CASP1, probe A_23_P202978",0.641 times
same,log2 [ratio],"CASP1, probe A_23_P202978",−0.642
same,R*: Ratio to control,"CASP10, probe A_23_P209408",0.552 times
same,log2 [ratio],"CASP10, probe A_23_P209408",−0.857
same,R*: Ratio to control,"CASP10, probe A_24_P139993",0.609 times
same,log2 [ratio],"CASP10, probe A_24_P139993",−0.716
same,R*: Ratio to control,"CCBE1, probe A_23_P55544",1.755 times
same,log2 [ratio],"CCBE1, probe A_23_P55544",0.811
same,R*: Ratio to control,"CCBE1, probe A_32_P171043",1.890 times
same,log2 [ratio],"CCBE1, probe A_32_P171043",0.918
same,R*: Ratio to control,"CDKN1A, probe A_23_P59210",0.439 times
same,log2 [ratio],"CDKN1A, probe A_23_P59210",−1.187
same,R*: Ratio to control,"CDKN1A, probe A_24_P89457",0.294 times
same,log2 [ratio],"CDKN1A, probe A_24_P89457",−1.768
same,R*: Ratio to control,"CEBPB, probe A_23_P143242",0.617 times
same,log2 [ratio],"CEBPB, probe A_23_P143242",−0.697
same,R*: Ratio to control,"CEBPB, probe A_23_P411296",0.383 times
same,log2 [ratio],"CEBPB, probe A_23_P411296",−1.385
same,R*: Ratio to control,"CIDEC, probe A_23_P92025",0.593 times
same,log2 [ratio],"CIDEC, probe A_23_P92025",−0.754
same,R*: Ratio to control,"CKLF, probe A_23_P118061",1.501 times
same,log2 [ratio],"CKLF, probe A_23_P118061",0.586
same,R*: Ratio to control,"CKLF, probe A_23_P206396",1.601 times
same,log2 [ratio],"CKLF, probe A_23_P206396",0.679
same,R*: Ratio to control,"CKLF, probe A_24_P215804",1.551 times
same,log2 [ratio],"CKLF, probe A_24_P215804",0.633
same,R*: Ratio to control,"CKS2, probe A_23_P71727",1.510 times
same,log2 [ratio],"CKS2, probe A_23_P71727",0.595
same,R*: Ratio to control,"COL8A1, probe A_23_P69030",1.999 times
same,log2 [ratio],"COL8A1, probe A_23_P69030",0.999
same,R*: Ratio to control,"COL8A1, probe A_23_P211762",1.643 times
same,log2 [ratio],"COL8A1, probe A_23_P211762",0.716
same,R*: Ratio to control,"COL8A1, probe A_24_P139152",1.703 times
same,log2 [ratio],"COL8A1, probe A_24_P139152",0.768
same,R*: Ratio to control,"DDIT3, probe A_23_P21134",0.210 times
same,log2 [ratio],"DDIT3, probe A_23_P21134",−2.249
same,R*: Ratio to control,"FGF9, probe A_23_P105803",1.606 times
same,log2 [ratio],"FGF9, probe A_23_P105803",0.684
same,R*: Ratio to control,"GLI2, probe A_23_P500034",2.060 times
same,log2 [ratio],"GLI2, probe A_23_P500034",1.043
same,R*: Ratio to control,"HAND2, probe A_23_P373521",1.971 times
same,log2 [ratio],"HAND2, probe A_23_P373521",0.979
same,R*: Ratio to control,"IFI16, probe A_23_P217866",0.585 times
same,log2 [ratio],"IFI16, probe A_23_P217866",−0.773
same,R*: Ratio to control,"IFNG, probe A_23_P151294",0.611 times
same,log2 [ratio],"IFNG, probe A_23_P151294",−0.710
same,R*: Ratio to control,"IKBIP, probe A_23_P53467",0.626 times
same,log2 [ratio],"IKBIP, probe A_23_P53467",−0.675
same,R*: Ratio to control,"IKBIP, probe A_23_P303210",0.468 times
same,log2 [ratio],"IKBIP, probe A_23_P303210",−1.095
same,R*: Ratio to control,"IL1A, probe A_23_P72096",0.216 times
same,log2 [ratio],"IL1A, probe A_23_P72096",−2.211
same,R*: Ratio to control,"KNG1, probe A_32_P230808",0.358 times
same,log2 [ratio],"KNG1, probe A_32_P230808",−1.484
same,R*: Ratio to control,"LEPR, probe A_24_P231104",1.659 times
same,log2 [ratio],"LEPR, probe A_24_P231104",0.730
same,R*: Ratio to control,"LOX, probe A_23_P122216",1.637 times
same,log2 [ratio],"LOX, probe A_23_P122216",0.711
same,R*: Ratio to control,"MAP3K10, probe A_24_P284523",0.570 times
same,log2 [ratio],"MAP3K10, probe A_24_P284523",−0.810
same,R*: Ratio to control,"MAPRE2, probe A_23_P89835",1.538 times
same,log2 [ratio],"MAPRE2, probe A_23_P89835",0.621
same,R*: Ratio to control,"MAPRE2, probe A_24_P193911",1.666 times
same,log2 [ratio],"MAPRE2, probe A_24_P193911",0.736
same,R*: Ratio to control,"MMP2, probe A_23_P163787",1.578 times
same,log2 [ratio],"MMP2, probe A_23_P163787",0.658
same,R*: Ratio to control,"MVC, probe A_24_P38363",1.686 times
same,log2 [ratio],"MVC, probe A_24_P38363",0.754
same,R*: Ratio to control,"NLRP1, probe A_23_P89550",0.483 times
same,log2 [ratio],"NLRP1, probe A_23_P89550",−1.048
same,R*: Ratio to control,"NLRP1, probe A_24_P83615",0.558 times
same,log2 [ratio],"NLRP1, probe A_24_P83615",−0.841
same,R*: Ratio to control,"NR2F2, probe A_23_P88589",1.662 times
same,log2 [ratio],"NR2F2, probe A_23_P88589",0.733
same,R*: Ratio to control,"NR2F2, probe A_24_P313354",1.746 times
same,log2 [ratio],"NR2F2, probe A_24_P313354",0.804
same,R*: Ratio to control,"NR4A1, probe A_23_P128230",0.302 times
same,log2 [ratio],"NR4A1, probe A_23_P128230",−1.727
same,R*: Ratio to control,"NRP1, probe A_24_P135322",1.664 times
same,log2 [ratio],"NRP1, probe A_24_P135322",0.735
same,R*: Ratio to control,"NRP1, probe A_24_P928052",1.990 times
same,log2 [ratio],"NRP1, probe A_24_P928052",0.993
same,R*: Ratio to control,"NTF3, probe A_23_P360797",0.492 times
same,log2 [ratio],"NTF3, probe A_23_P360797",−1.024
same,R*: Ratio to control,"NTRK1, probe A_23_P34804",0.261 times
same,log2 [ratio],"NTRK1, probe A_23_P34804",−1.936
same,R*: Ratio to control,"OBSCN, probe A_24_P273157",0.654 times
same,log2 [ratio],"OBSCN, probe A_24_P273157",−0.613
